Data reported in PMC4746303, “Inactivation of Anopheles gambiae Glutathione Transferase ε2 by Epiphyllocoumarin” (Biochemistry Research International, 2016).

Columns and labels:
[1] = biological target: T1, Glutathione transferase epsilon 2 (AgGSTε2) (Anopheles gambiae, UniProt Q9GPL8); assay: time-dependent inactivation of purified enzyme at […] (positive control), half-life […] min; type: biochemical
T1 construct: recombinant AgGSTε2 expressed from pET3a in E. coli BL21 (DE3) pLysS
T1 sequence (Q9GPL8 1-221): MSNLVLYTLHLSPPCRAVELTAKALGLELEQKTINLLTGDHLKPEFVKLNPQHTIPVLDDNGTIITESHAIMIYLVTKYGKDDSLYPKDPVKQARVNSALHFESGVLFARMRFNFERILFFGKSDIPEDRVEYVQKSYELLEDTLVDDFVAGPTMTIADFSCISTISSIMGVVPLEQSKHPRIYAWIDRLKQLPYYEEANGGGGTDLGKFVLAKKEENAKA

[2] = biological target: T1, Glutathione transferase epsilon 2 (AgGSTε2); assay: time- and concentration-dependent inactivation of purified enzyme, GST activity (CDNB/GSH) assay; KI […], kinact […] min^-1; type: biochemical

Compound | time-dependent inactivation of purified enzyme at 25 μM (positive control), half [1] | KI (inactivation) [2]
C=C(CC)C(=O)c1ccc(OCC(=O)O)c(Cl)c1Cl [ETA, ethacrynic acid] | 22 min | –
O=c1ccc2c3c(c(O)cc2o1)C[C@@H](O)[C@@H](c1ccc(O)c(O)c1)O3 [Tral 1, epiphyllocoumarin] | – | 7.5 ± 2.1 µM
